Results taken from patent US12390472B2 (SUZHOU SINOVENT PHARMACEUTICALS CO., LTD., priority 2018, dated 2025).
Where two headings read alike, the source gives them in different places.

What was measured:
[1] = tested on: Pfeiffer cells; assay: Experiment on Pfeiffer cell proliferation (CellTiter-Glo); assay type: cell-based, human; details: Homo sapiens
Description: 90 uL of cells were added to each well of a 96-well plate at 12000 cells/well, and cell-free culture medium was added to blank control wells. The plate was incubated overnight in an incubator at 37° C., 5% CO2 and 100% relative humidity. The compounds were diluted from highest to lowest concentration gradient with DMSO to make stock solutions at 400-fold and 10-fold concentration. 10 μL of 10× compound working solution was added to the cell culture plate, and the total concentration of the compound was detected from 10 μM, 9 concentration points in total, and 3-fold serial dilution was performed. 10 μL of DMSO-cell culture medium mixture solution was added to the vehicle control wells and blank control wells. The final concentration of DMSO was 0.25%. The plate was put back in the incubator for another 7 days of culturing.
The cell culture plate cultured for 7 days was taken out of the incubator, and the suspended cells in the 96-well plate were mixed well by pipetting multiple times. 74 uL of fresh cell culture medium was added to a new 96-well plate, and 16 uL of cell suspension was pipetted from the 96-well plate with cells mixed well by pipetting into the new 96-well plate to bring the total volume to 90 uL. Cells in the new 96-well plate were treated with the compound. The new 96-well plate was put back in the incubator for another 7 days of culturing, and then cell viability was detected directly.
84 μL of cell suspension was taken from the cell culture plate for cell viability detection.
CellTiter-Glo buffer and substrate were thawed and balanced to room temperature. The CellTiter-Glo buffer was added to a bottle of CellTiter-Glo substrate to dissolve the substrate, thereby preparing CellTiter-Glo working solution. The bottle was subjected to slow vortex shaking to completely dissolve the substrate. The cell culture plate was taken out and balanced to room temperature for 30 min. 50 μL of CellTiter-Glo working solution was added to each well. The cell plate was wrapped with aluminum foil to keep out of light. The plate was shaken on an orbital shaker for 2 min to induce cell lysis. The plate was placed at room temperature for 10 min to stabilize the luminescence signals. The luminescence signals were detected on 2104 En Vision plate reader.
Inhibition rates of compounds at different concentrations were calculated in Excel, followed by plotting the inhibition curves and calculating relevant parameters including minimum (%), maximum (%), and absolute IC50 using GraphPad Prism software.

[2] = In vivo pharmacokinetic properties in mice; parameters: species or system mouse; details: male ICR mice; for F: intragastric 250 mg/kg vs intravenous 5 mg/kg; for CL / AUC(0-inf) / Cmax / Tmax / half-life: single intravenous 5 mg/kg and intragastric 250 mg/kg study; for AUC(0-inf) / Cmax / Tmax / half-life: mouse, plasma; for AUC(0-inf) / Cmax / Tmax: oral; for Cmax: read-out: Cmax; for Tmax: read-out: Tmax
Outline: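 Male ICR mice, n=3 per group, dosed once at 5 mg/kg IV in 10% DMSO/90% (20% Captisol) or 250 mg/kg intragastrically in 0.5% CMC-Na/0.1% Tween 80 (pH 3-4). EDTA-K2 plasma sampled from 5 min to 24 h; compound levels measured by LC-MS/MS.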

[3] = target: EZH2 (Y641N) (Homo sapiens (Human), UniProt Q15910, Y641N); assay: Test on EZH2 (Y641N) inhibitory activity; assay type: biochemical
Description: (§1) Compounds at different concentrations were dissolved in 100% DMSO and transferred to test plates, and the final concentration of DMSO was 1%. Enzyme solution and substrate SAM solution were prepared with 1-fold reaction buffer (optimized Tris buffer). 5 uL of enzyme solution was added to the test plate and wells only added with 5 uL of reaction buffer were used as negative control wells. After incubation at room temperature for 15 min, the plate was added with 5 uL of substrate solution per well to initiate the reaction, and then incubated at room temperature for 60 min. 5 uL of receptor solution was added and the plate was incubated away from light at room temperature for 60 min. 10 uL of donor solution was added and the plate was incubated away from light at room temperature for 30 min. The endpoint values were read on the Envision and the IC50 was calculated.
(§2) Data were fitted by GraphPad Prism 5 software and inhibition rate was calculated according to equation (1) Inh %=(Max−Signal)/(Max−Min)×100 (1)
(§3) IC50 was calculated using equation (2) Y=Bottom+(Top−Bottom)/(1+10^((Log IC50−X)×Hill Slope))
(§4) Y: inhibition rate; X: concentration of the compound

[4] = target: EZH2 (wt) (Homo sapiens (Human), UniProt Q15910); assay: Test on EZH2 (wt) inhibitory activity ([3H]-SAM Flashplate); assay type: biochemical
Description: Protocols Compounds at different concentrations were dissolved in 100% DMSO and transferred to test plates, and the final concentration of DMSO was 1%. The enzyme solution and the mixture solution of peptide and [3H]-SAM were prepared with 1-fold reaction buffer. 10 uL of enzyme solution was added to the test plate and wells only added with 10 uL of reaction buffer were used as negative control wells. After incubation at room temperature for 15 min, the plate was added with 10 uL of the mixture solution of peptide and [3H]-SAM per well to initiate the reaction which lasts for 60 min at room temperature. The pre-cooled SAM was added to 1-fold reaction buffer to prepare a stop buffer. The reaction was stopped by adding 10 uL of stop buffer per well. 25 uL of solution was transferred from the reaction plate to Flashplate and incubated at room temperature for at least 1 h. The Flashplate was washed 3 times with dH2O+0.1% Tween-20. The plate was read by Microbeta.
as §2, §3, §4

[5] = tested on: subcutaneous xenograft tumor model of human B lymphocyte Pfeiffer; assay: In vivo efficacy in subcutaneous xenograft tumor model of human B lymphocyte Pfeiffer; parameters: species or system mouse; details: SCID Beige mice, 100 mg/kg p.o. QD 21 days, tumor volume 21 days after administration
Description: Human B lymphocyte strain Pfeiffer was cultured in vitro, in a monolayer way, in a RPMI-1640 medium containing 10% fetal bovine serum, 100 U/mL penicillin and 100 μg/mL streptomycin in an incubator at 37° C./5% CO2. Conventional medium refreshment and subculturing were carried out twice a week, and cells in logarithmic growth phase were collected and used for tumor inoculation after being counted.
Female SCID Beige mice, aged 6-8 weeks and weighed 18-22 g were used in the experiment. The experiment started after 7-day adaptive feed.
Each mouse was inoculated subcutaneously with 10×10^6 Pfeiffer cells in a volume of 0.2 mL in the right side of the neck. The cells were suspended with PBS and matrigel (volume ratio 1:1). After the average tumor volume reached 130 mm^3, the mice were divided into groups with 8 mice per group for administration. The administration volume was 10 uL/g and the dose was 100 mg/kg if there's no special labeling ((p.o. administration, QD, continuous administration for 21 days).
Animal body weights were measured twice weekly and animal mortality and side effects within each group were recorded based on the number of animals in the group.
The experimental indices were to investigate whether tumor growth was inhibited or delayed or the tumor was cured. Tumor diameters were measured twice weekly using a vernier caliper. The tumor volume was calculated according to the following formula: V=0.5 a×b^2, where a and b represent the long diameter and short diameter of the tumor, respectively. The tumor growth inhibitions (TGIs) of the compounds were evaluated by T/C (%). The percentage value of T/C (%) is an index for reflecting the tumor growth inhibition, where T and C represent the average tumor volume of the administration group and the control group, respectively, at a certain day.
The tumor growth inhibition rate was calculated according to the following formula: TGI (%)=(1−(Ti−T0)/(Vi−V0))×100, where Ti is the average tumor volume of a certain administration group on a certain day, T0 is the average tumor volume of the administration group at the start of administration, Vi is the average tumor volume of the vehicle control group on a certain day (same day as Ti) and V0 is the average tumor volume of the vehicle control group at the start of administration.
Relative tumor volumes at each time point for each group were statistically analyzed and differences among groups were assessed based on the data. The statistical method used for testing was one-way ANOVA.

[6] = tested on: WSU-DLCL2 cells; assay: Experiment on WSU-DLCL2 cell proliferation (Calcein-AM); assay type: cell-based; details: Homo sapiens
Description: WSU-DLCL2 cells were plated in a 96-well plate and 100 uL of cells (a density of 1×10^5 cells/mL) and 50 uL of compound stock at 3-fold concentration was added to each well, and the final volume was 150 uL/well. After 6 days of culturing, on day 7, the cells in the well plate were mixed well by pipetting, and 50 uL of the cell suspension was pipetted to be tested for cell viability using Calcein-AM. 50 uL of the cell suspension was added to a 96-well plate coated by poly-D-Lysine, and then 50 uL of HBSS containing 2 uM Calcein-AM was added to make the final concentration of Calcein-AM 1 uM. After incubation for 10 min at room temperature, the cells were rapidly centrifuged to be deposited on the bottom of the plate. The cells were cultured in the incubator for another 40 min and then the plate was read on Acumen.
The remaining cells were diluted and then plated in a 96-well plate, and 100 uL of cells and 50 uL of a compound at 3-fold concentration were added to each well for further culturing until day 14, and the cell viability was detected as described above. The IC50 was calculated.

[7] = target: EZH2 (Y641F) (Homo sapiens (Human), UniProt Q15910, Y641F); assay: Test on EZH2 (Y641F) inhibitory activity; assay type: biochemical
Sequence of EZH2 (Y641F) (Q15910 whole entry Y641F): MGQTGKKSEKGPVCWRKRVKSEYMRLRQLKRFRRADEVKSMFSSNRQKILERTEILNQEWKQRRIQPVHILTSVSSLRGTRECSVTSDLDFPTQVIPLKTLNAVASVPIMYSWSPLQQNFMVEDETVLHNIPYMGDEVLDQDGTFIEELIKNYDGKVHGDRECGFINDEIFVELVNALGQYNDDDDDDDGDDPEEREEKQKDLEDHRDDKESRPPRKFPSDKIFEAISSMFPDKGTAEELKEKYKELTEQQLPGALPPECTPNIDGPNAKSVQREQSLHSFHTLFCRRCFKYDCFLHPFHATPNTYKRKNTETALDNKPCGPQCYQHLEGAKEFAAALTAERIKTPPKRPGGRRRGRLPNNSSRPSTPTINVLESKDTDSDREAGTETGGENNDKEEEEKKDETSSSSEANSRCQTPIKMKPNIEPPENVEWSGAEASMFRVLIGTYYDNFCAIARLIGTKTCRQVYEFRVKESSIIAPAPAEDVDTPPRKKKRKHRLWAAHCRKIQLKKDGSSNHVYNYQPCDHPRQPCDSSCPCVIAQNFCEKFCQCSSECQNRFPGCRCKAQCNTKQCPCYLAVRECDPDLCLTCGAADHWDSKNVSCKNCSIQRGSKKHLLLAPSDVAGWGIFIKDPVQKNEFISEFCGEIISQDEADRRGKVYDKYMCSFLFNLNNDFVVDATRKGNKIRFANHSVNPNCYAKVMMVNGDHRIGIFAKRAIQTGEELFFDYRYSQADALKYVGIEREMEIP
Sequence of EZH2 (Y641F) (O75530 whole entry partner): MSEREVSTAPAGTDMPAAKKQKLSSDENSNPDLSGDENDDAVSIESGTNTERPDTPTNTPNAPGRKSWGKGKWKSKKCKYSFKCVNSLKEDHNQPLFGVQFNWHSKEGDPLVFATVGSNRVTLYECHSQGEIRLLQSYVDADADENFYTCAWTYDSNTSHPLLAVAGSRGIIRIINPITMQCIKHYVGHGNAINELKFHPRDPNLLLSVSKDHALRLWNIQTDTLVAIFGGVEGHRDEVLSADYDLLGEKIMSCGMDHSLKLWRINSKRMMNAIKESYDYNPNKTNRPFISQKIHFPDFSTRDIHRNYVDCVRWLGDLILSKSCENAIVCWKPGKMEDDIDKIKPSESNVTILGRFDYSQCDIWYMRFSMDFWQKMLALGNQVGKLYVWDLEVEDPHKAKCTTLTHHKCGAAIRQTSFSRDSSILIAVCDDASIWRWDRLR
Sequence of EZH2 (Y641F) (Q15022 whole entry partner): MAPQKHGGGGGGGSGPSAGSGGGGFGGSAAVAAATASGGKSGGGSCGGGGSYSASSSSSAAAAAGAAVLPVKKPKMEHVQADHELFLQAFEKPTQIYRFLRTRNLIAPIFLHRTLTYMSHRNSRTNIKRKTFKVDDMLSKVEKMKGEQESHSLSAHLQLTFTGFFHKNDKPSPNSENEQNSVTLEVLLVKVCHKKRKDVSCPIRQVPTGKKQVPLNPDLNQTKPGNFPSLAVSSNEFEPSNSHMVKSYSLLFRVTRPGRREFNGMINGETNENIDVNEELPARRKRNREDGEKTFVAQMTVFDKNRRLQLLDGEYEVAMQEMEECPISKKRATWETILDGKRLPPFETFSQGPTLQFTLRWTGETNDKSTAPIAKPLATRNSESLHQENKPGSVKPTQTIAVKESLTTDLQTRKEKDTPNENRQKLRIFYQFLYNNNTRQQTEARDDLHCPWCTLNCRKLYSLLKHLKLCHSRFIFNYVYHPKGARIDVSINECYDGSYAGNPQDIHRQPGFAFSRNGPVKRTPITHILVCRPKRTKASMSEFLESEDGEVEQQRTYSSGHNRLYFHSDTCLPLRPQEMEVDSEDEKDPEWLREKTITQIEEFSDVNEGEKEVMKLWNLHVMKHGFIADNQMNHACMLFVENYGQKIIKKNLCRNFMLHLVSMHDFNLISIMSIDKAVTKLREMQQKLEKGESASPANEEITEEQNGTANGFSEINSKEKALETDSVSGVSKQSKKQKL
Description: as §1, §2, §3, §4

Sequence of EZH2 (wt) (Q15910 whole entry): as the sequence (Q15910 whole entry Y641F) above, with F641Y counted along it
Sequence of EZH2 (wt) (O75530 whole entry partner): as the sequence (O75530 whole entry partner) above
Sequence of EZH2 (wt) (Q15022 whole entry partner): as the sequence (Q15022 whole entry partner) above
Sequence of EZH2 (Y641N) (Q15910 whole entry Y641N): as the sequence (Q15910 whole entry Y641F) above, with F641N counted along it
Sequence of EZH2 (Y641N) (O75530 whole entry partner): as the sequence (O75530 whole entry partner) above
Sequence of EZH2 (Y641N) (Q15022 whole entry partner): as the sequence (Q15022 whole entry partner) above

| Structure (SMILES) | IC50 ([1]; 168 h, Day 7, read-out: IC50 Pfeiffer proliferation Day 7) [nM] | IC50 ([1]; 336 h, Day 14, read-out: IC50 Pfeiffer proliferation Day 14) [nM] | F [2] [%] | CL [2] [mL/min/lg] | AUC(0-inf) [2] [ng·h/mL] | Cmax [2] [ng/mL] | Tmax [2] [h] | half-life [2] [h] | IC50 [3] [nM] | IC50 [4] [nM] | TGI [5] [%] | IC50 ([6]; WSUDLCL2, 168 h, WSU-DLCL2, Day 7, read-out: IC50 WSU-DLCL2 proliferation Day 7) [nM] | IC50 ([6]; WSUDLCL2, 336 h, WSU-DLCL2, Day 14, read-out: IC50 WSU-DLCL2 proliferation Day 14) [nM] | IC50 [7] [nM] |
| --- | --- | --- | --- | --- | --- | --- | --- | --- | --- | --- | --- | --- | --- | --- |
| CCN(c1cc(O[C@H]2C[C@H](N3C[C@@H](C)O[C@@H](C)C3)C2)cc(C(=O)NCc2c(OC)cc(C)[nH]c2=O)c1C)C1CCC(F)(F)CC1 [Example 87, 3-((4,4-difluorocyclohexyl)(ethyl)amino)-5-(trans-3-(cis-2,6-dimethylmorpholino)cyclobutoxy)-N-((4-methoxy-6-methyl-2-oxo-1,2-dihydropyridin-3-yl)methyl)-2-methylbenzamide] | 20 | 4.3 | 35.4 | 31.0 ± 2.82 | 47800 | 10600 ± 4150 | 0.83 ± 0.29 | 5.77 ± 1.51 | 2.6 | 1.2 | 42.84 | 40 | 9 | 5.5 |
| CCN(c1cc(O[C@H]2C[C@H](N3C[C@@H](C)O[C@@H](C)C3)C2)cc(C(=O)NCc2c(OC)cc(C)[nH]c2=O)c1C)C1CC2CCC(C1)O2 (stereo partly drawn) [Example 88, 3-((8-oxabicyclo[3.2.1]octan-3-yl)(ethyl)amino)-5-(trans-3-(cis-2,6-dimethylmorpholinyl)cyclobutoxy)-N-((4-methoxy-6-methyl-2-oxo-1,2-dihydropyridin-3-yl)methyl)-2-methylbenzamide] | – | – | 33.4 | 60.4 ± 0.15 | 23000 ± 4540 | 10200 ± 1450 | 0.5 | 2.26 ± 0.87 | 2 | 1.1 | 32.83 | – | – | 3.3 |
| CCN(c1cc(O[C@H]2C[C@H](N3CCCCC3)C2)cc(C(=O)NCc2c(OC)cc(C)[nH]c2=O)c1C)C1CCOCC1 [Example 93, 3-(ethyl(tetrahydro-2H-pyran-4-yl)amino)-N-((4-methoxy-6-methyl-2-oxo-1,2-dihydropyridin-3-yl)methyl)-2-methyl-5-(trans-3-(piperidin-1-yl)cyclobutoxy)benzamide] | – | – | 23.1 | 45.17 ± 4.21 | 21500 ± 2110 | 10700 ± 4120 | 0.33 ± 0.14 | 1.3 ± 0.64 | < 0.51 | < 0.51 | – | – | – | < 0.51 |
